How the values were obtained:
Format in all cases: cell-based
hiPS cell line 253G1 = assay: Human pluripotent stem cell (hiPS cell), EZSPHERE plate, ATP assay (Experimental Example 13)
Experimental: hiPS cell line 253G1 (purchased from RIKEN) was cultured on a dish coated with vitronectin VTN-N (manufactured by Thermo Fisher Scientific) using mTeSR1 (registered trade mark) medium (manufactured by STEMCELL Technologies). The above-mentioned cells in the proliferation phase were washed with PBS (manufactured by Fujifilm Corporation Wako Pure Chemical Industries, Ltd.), TrypLE Select (registered trade mark) (manufactured by Thermo Fisher Scientific) was added and the mixture was incubated at 37° C. for 3 min to remove the detaching solution. The medium was added and the cells were detached by pipetting. Thereafter, the supernatant was removed by centrifugation.
The aforementioned cells were suspended in a medium containing 10 μM Y-27632 (manufactured by Fujifilm Corporation Wako Pure Chemical Industries, Ltd.) and seeded in a 96-well EZSPHERE plate (manufactured by AGC TECHNO GLASS CO., LTD., #4860-900) at a cell concentration of 10000 cells/200 μL/well. […] The amount of each compound solution to be added was 2 μL/well. As a control, a DMSO solution dissolved in a medium was added (DMSO final concentration 0.05%). The medium was exchanged by half the volume every day, and each compound solution was also added to make the compound concentration constant.

[1] = system: SKOV3 cells (human ovarian cancer-derived cell line); assay: Cell proliferation activity in three-dimensional medium FCeM, ATP assay (Experimental Example 1); conditions: SKOV3, 3D medium FCeM, compound 5 μM, 4 days; DMSO control = 100%; average of two tests
Experimental: A cell proliferation promoting effect when the compound to be used in the present invention was added to a three-dimensional medium was studied. Specifically, precultured (adhesion cultured) SKOV3 cells (human ovarian cancer-derived cell line) were recovered and suspended in a three-dimensional cell culture medium (“FCeM (registered trade mark)” (Nissan chemical corporation)) to prepare a cell suspension. […] The cell suspension seeded in the plate was stood overnight at 37° C., 5% CO2. Then, a DMSO diluted solution (4.44 μL) of the compound to be used in the present invention was added at a final concentration of 5 μM (or two steps of […] and 10 μM) (no stirring after addition). After addition of each compound, the mixtures were stood for 4 days at 37° C., 5% CO2. […] The luminescence intensity (RLU value) was measured by FlexStation3 (manufactured by Molecular Devices), and cell proliferation was evaluated.
The proliferation rate was calculated based on the control (cells added with DMSO without containing the compound to be used in the present invention) as the standard (100%). The values shown in the tables are average values of the results of two tests.

plural animal cell lines = assay: Animal cell lines, summary over the cell lines (Experimental Example 15); conditions: animal cell lines under three-dimensional conditions
Source text: (§1) Various animal cell lines were precultured (single layer culture) as follows in respective media. Chinese hamster ovary-derived cell line CHO-K1 (manufactured by DS PHARMA BIO MEDICAL, 10% fetal bovine serum (FBS, manufactured by Corning)-containing Ham's F-12 medium (manufactured by Fujifilm Wako Pure Chemical Corporation)), Cercopithecus aethiops kidney epithelium-derived cell line Vero (purchased from JCRB cell bank, 5% FBS-containing Medium 199 medium (manufactured by Life Technologies)). The above-mentioned cells in the logarithmic growth phase were washed with PBS, a 0.25 w/v % trypsin-1 mmol/L EDTA (ethylenediaminetetraacetic acid) solution (manufactured by Fujifilm Wako Pure Chemical Corporation) was added, and adherent cells were detached by incubating at 37° C. for 3 min. Each medium was added and the mixture was centrifuged and resuspended in the same medium.
(§2) The aforementioned various animal cells were suspended in respective deacylated gellan gum-containing or not containing media (deacylated gellan gum concentration was 0.02 w/v % in Ham's F-12 medium, 0.015 w/v % in Medium 199 medium), and seeded in a 96 well low attachment U-bottom plate (manufactured by Corning, #4520, deacylated gellan gum-free medium), or a low attachment flat bottom plate (manufactured by Corning, #3474, deacylated gellan gum-containing medium) at a cell concentration of 700-2000 cells/90 μL/well (all 3D culture). […] The amount of each compound solution to be added was […]. As a control, a DMSO solution dissolved in a medium was added (DMSO final concentration 0.1%). […] When compared with the compound non-addition (control), one showing a value of not more than 119% as -, one showing a value of not less than 120% as ◯, and one showing a value of not less than 150% as ⊚ are shown in the twenty-third table and the twenty-fourth table.

[2] = system: human epithelial-like cell cancer-derived cell line A431; assay: Cells cultured by hanging drop method, ATP assay (Experimental Example 12)
Experimental: (§3) Human epithelial-like cell cancer-derived cell line A431 (manufactured by ATCC) was cultured using 10% FBS and 1% MEM non-essential amino acid solution (MEM NEAA, manufactured by Wako Pure Chemical Industries, Ltd.)-containing EMEM (manufactured by Wako Pure Chemical Industries, Ltd.)). In addition, bone marrow-derived human mesenchymal stem cells (BM-hMSC, manufactured by PromoCell) were cultured using a mesenchymal stem cell proliferation medium (manufactured by PromoCell). Each of the above-mentioned cells in the logarithmic growth phase was washed with PBS, a 0.25 w/v % trypsin-1 mmol/L EDTA (ethylenediaminetetraacetic acid) solution (manufactured by Wako Pure Chemical Industries, Ltd.) was added, and the cells were detached by incubating at 37° C. for 3 min. Each medium was added, the mixture was centrifuged, and the supernatant was removed.
(§4) The cell suspension was seeded by 10 μL in 15 drops on the back surface of the lid of a 3.5 cm dish (manufactured by Falcon, #351008) to form droplets. At this time, as a control, a medium supplemented with DMSO (final concentration of DMSO: 0.05%) was seeded by 10 μL in 15 drops. The lid was returned to a 3.5 cm dish added with 2 mL of PBS, and cultured for 2 days in an incubator at 37° C., 5% CO2. The cultured droplets were collected in a 1.5 mL tube, and the medium was added to a final volume of 150 μL.

[3] = system: Bone marrow-derived human mesenchymal stem cells (BM-hMSC); assay: as above
Experimental: as §3, §4

[4] = system: Human umbilical vein endothelial cells; assay: Vascular endothelial cell, 3D culture, ATP assay (Experimental Example 14)
Experimental: Human umbilical vein endothelial cells (manufactured by PromoCell) were precultured in Endothelial Cell proliferation Medium (manufactured by PromoCell) medium (single layer culture). The above-mentioned cells in the logarithmic growth phase were washed with PBS, DetachKit (manufactured by PromoCell) was added, and adherent cells were detached by incubating at 37° C. for 3 min. The medium was added and the mixture was centrifuged and resuspended in the same medium.
The aforementioned cells were suspended in respective deacylated gellan gum-containing or not containing media (deacylated gellan gum concentration was 0.015 w/v %), and seeded in a 96 well low attachment U-bottom plate (manufactured by Corning, #4520, deacylated gellan gum-free medium), or a low attachment flat bottom plate (manufactured by Corning, #3474, deacylated gellan gum-containing medium) at a cell concentration of 700-2000 cells/90 μL/well (all 3D culture). […] The amount of each compound solution to be added was 10 μL/well. As a control, a DMSO solution dissolved in a medium was added (DMSO final concentration 0.1%).

[5] = system: Chinese hamster ovary-derived cell line CHO-K1; assay: Animal cell lines, 3D culture, ATP assay (Experimental Example 15); conditions: CHO-K1; low attachment flat bottom plate (deacylated gellan gum-containing medium); 5 μM; 4 days
Source text: as §1, §2

[6] = system: Cercopithecus aethiops kidney epithelium-derived cell line Vero; assay: as above; conditions: 4 days
Source text: as §1, §2

CCC(=NNC(=O)CNc1ccccc1)c1ccc(O)c(C)c1O [k-1:H-1]
relative value (%) (hiPS cell line 253G1; hiPS 253G1, EZSPHERE plate, 5 μM, 3 days, RLU of DMSO addition = 100%): 166%
proliferation activity (in words) (hiPS cell line 253G1; human pluripotent stem cells under three-dimensional conditions): promoted proliferation activity in human pluripotent stem cells
proliferation rate (%) [1]: 233.26%
proliferation activity (in words) (plural animal cell lines): promoted proliferation activity in plural animal cell lines
cell number (in words) ([2]; A431 cell line, three-dimensional cell culture by the hanging drop method): showed an effect of increasing the number
cell number (relative value) ([2]; A431 cell, hanging drop, 5 μM, 2 days, control = 100%): 252%
cell number (relative value) ([3]; BM-hMSC, hanging drop, 5 μM, 2 days, control = 100%): 186%
cell number (in words) ([3]; bone marrow-derived human mesenchymal stem cells, hanging drop method): showed an effect of increasing the number
relative value of RLU (number of viable cells) ([4]; HUVEC, low attachment U-bottom plate, 5 μM, 4 days, no-addition = 100%): 820%
proliferation activity (in words) ([4]; human umbilical vein endothelial cells under three-dimensional conditions): promoted proliferation activity in human umbilical vein endothelial cells
number of viable cells (RLU), relative value to control (100%) [5]: ◯ (one showing a value of not less than 120% as ◯)
number of viable cells (RLU), relative value to control (100%) ([6]; low attachment U-bottom plate, 5 μM): ⊙
number of viable cells (RLU), relative value to control (100%) ([6]; low attachment U-bottom plate, 10 μM): ⊙
number of viable cells (RLU), relative value to control (100%) ([6]; low attachment flat bottom plate (deacylated gellan gum-containing medium), 5 μM): ⊙
number of viable cells (RLU), relative value to control (100%) ([6]; low attachment flat bottom plate (deacylated gellan gum-containing medium), 10 μM): ⊙

Reference: patent US20200165194A1, “ADDITIVE COMPOSITION FOR CULTURE MEDIUM, ADDITIVE COMPOUND FOR CULTURE MEDIUM, AND METHOD FOR CULTURE OF CELLS OR TISSUE USING SAME” (NISSAN CHEMICAL CORPORATION, priority 2017, published 2020)
